Laboratory results: US11471390B2, “Pseudoceramide compound and use thereof” (DAEBONG LS, LTD, priority 2017, dated 2022)

Test system: Raw264.7 macrophage cells
Experiment: Cell viability of Raw264.7 macrophage cells by MTT assay (cytotoxicity)
Assay type: cell-based
Settings: Raw264.7, MTT
Description: The cell viabilities of Raw264.7 macrophage cells were assessed by MTT assay to evaluate the cytotoxicities of the pseudoceramide compounds. When the cell viability was ≥80% by MTT assay, the pseudoceramide compound was judged to be not cytotoxic. The cell viabilities of the pseudoceramide compounds were […] at concentrations of 1-50 μg/mL, indicating no toxicity to Raw264.7 macrophage (Table 1). Another experiment for anti-inflammatory effects of the pseudoceramide compounds was conducted at concentrations of 1-50 μg/mL.

SMILES	Cell viability (%) (10 μM)	Cell viability (%) (concentration 5.0 (μg/mL))	Cell viability (%) (concentration 10.0 (μg/mL))	Cell viability (%) (concentration 25.0 (μg/mL))	Cell viability (%) (concentration 50.0 (μg/mL))
Cc1ccnc(N)c1 [2-Amino-4-methylpyridine, reference compound]	103.13%	–	–	–	–
CCCCCCCC/C=C\CCCCCCCC(=O)NC(CO)CO [Example 1, N-(1,3-dihydroxypropan-2-yl)oleamide]	–	100.99%	102.08%	102.14%	102.22%
CCCCC/C=C\C/C=C\CCCCCCCC(=O)NC(CO)CO [Example 2, (9Z,12Z)—N-(1,3-dihydroxypropan-2-yl)octadeca-9,12-dienamide]	–	100.35%	100.24%	100.09%	93.80%
CC/C=C\C/C=C\C/C=C\CCCCCCCC(=O)NC(CO)CO [Example 3, (9Z,12Z,15Z)—N-(1,3-dihydroxypropan-2-yl)octadeca-9,12,15-trienamide]	–	95.72%	101.01%	96.58%	96.64%
